Test results: PMC12632313 (bioRxiv, 2025)

Experiment: Ex-vivo stability in mouse whole blood
Assay type: in vitro ADME
Conditions: male, C57BL/6, mouse

half-life: 3.9 ± 1.3 min
Substance: H-RPPGFSPFR-OH [Bradykinin (BK), Bradykinin]
